Measurements: PubChem BioAssay (NCI)
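Values below derive from 48-hour exposures of cells grown in 96-well plates, with endpoints linearly interpolated between the two concentrations bracketing the appropriate inhibition level. Definition used: TGI = concentration required for complete inhibition of growth.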

Experiments:
Assay in all cases: DTP human tumour cell line panel, 48 h
SK-MEL-5 melanoma = tested on: SK-MEL-5 melanoma
SF-539 CNS = tested on: SF-539 CNS
OVCAR-8 ovarian = tested on: OVCAR-8 ovarian
SF-295 CNS = tested on: SF-295 CNS
MDA-MB-231 breast = tested on: MDA-MB-231 breast
HCT-116 colon = tested on: HCT-116 colon
OVCAR-4 ovarian = tested on: OVCAR-4 ovarian
HOP-62 NSCLC = tested on: HOP-62 NSCLC
OVCAR-5 ovarian = tested on: OVCAR-5 ovarian
NCI-H23 lung = tested on: NCI-H23 lung

Compound	TGI (SK-MEL-5 melanoma)	TGI (SF-539 CNS)	TGI (OVCAR-8 ovarian)	TGI (SF-295 CNS)	TGI (MDA-MB-231 breast)	TGI (HCT-116 colon)	TGI (OVCAR-4 ovarian)	TGI (HOP-62 NSCLC)	TGI (OVCAR-5 ovarian)	TGI (NCI-H23 lung)
C/C(CC(O)(/C=N/O)c1ccccc1)=N/O (stereo not given)	> 100 µM	> 100 µM	> 100 µM	> 100 µM	> 100 µM	> 100 µM	> 100 µM	> 100 µM	> 100 µM	> 100 µM
Cc1cc(Cc2cc(C)c(NC(=O)C(=O)C3CCC4=C(SC5C=CC=CC5N4)C3=O)c(C(C)C)c2)cc(C(C)C)c1NC(=O)C(=O)C1CCC2=C(SC3C=CC=CC3N2)C1=O (stereo not given)	> 100 µM	> 100 µM	> 100 µM	> 100 µM	> 100 µM	> 100 µM	> 100 µM	> 100 µM	> 100 µM	> 100 µM
COc1cc(-c2cc(=O)c3c(O)c(CC=C(C)C)c(O)cc3o2)ccc1O	> 50 µM	47.6 µM	> 50 µM	31.2 µM	> 50 µM	> 50 µM	43.6 µM	> 50 µM	> 50 µM	> 50 µM
CCOC(=O)C(Cc1ccc(OC(=O)c2ccc(OC)cc2)cc1)NC(=O)C(F)(F)F (stereo not given)	> 100 µM	> 100 µM	> 100 µM	> 100 µM	> 100 µM	> 100 µM	> 100 µM	> 100 µM	> 100 µM	> 100 µM
COC(=O)C1(C#N)C(C)(C)N=C(c2ccccc2)C12CCCCC2 (stereo not given)	> 100 µM	> 100 µM	> 100 µM	> 100 µM	> 100 µM	> 100 µM	> 100 µM	> 100 µM	> 100 µM	> 100 µM
